Assay results as given in patent US8557845B2, “Substituted pyrrolo-pyrazole derivatives as kinase inhibitors” (Nerviano Medical Sciences S.R.L., priority 2002, dated 2013).

Molecular target: Cdk2/Cyclin A (Homo sapiens, UniProt P24941)
Test: Inhibition assay of Cdk2/Cyclin A activity (SPA, IC50)
Assay type: biochemical
Conditions: tested against Cdk2/Cyclin A
Experimental: The inhibiting activity of putative Cdk/Cyclin inhibitors and the potency of selected compounds was determined through a method of assay based on the use of the SPA technology (Amersham Pharmacia Biotech).
The assay consists of the transfer of radioactivity labelled phosphate moiety by the kinase to a biotinylated substrate. The resulting 33P-labelled biotinylated product is allowed to bind to streptavidin-coated SPA beads (biotin capacity 130 pmol/mg), and light emitted was measured in a scintillation counter.
Inhibition Assay of Cdk2/Cyclin A Activity
4 μM in house biotinylated histone H1 (Sigma #H-5505) substrate, 10 μM ATP (0.1 microCi P^33γ-ATP), 4.2 ng Cdk2/Cyclin A complex, inhibitor in a final volume of 30 μl buffer (TRIS HCl 10 mM pH 7.5, MgCl2 10 mM, DTT 7.5 mM+0.2 mg/ml BSA) were added to each well of a 96 U bottom. After 30 min at r.t. incubation, reaction was stopped by 100 μl PBS+32 mM EDTA+0.1% Triton X-100+500 μM ATP, containing 1 mg SPA beads. Then a volume of 110 μl is transferred to Optiplate.
After 20 min. incubation for substrate capture, 100 μl 5M CsCl were added to allow statification of beads to the top of the plate and let stand 4 hours before radioactivity counting in the Top-Count instrument.
inhibitors were tested at different concentrations ranging from 0.0015 to 10 μM. Experimental data were analyzed by the computer program GraphPad Prizm using the four parameter logistic equation: y=bottom+(top−bottom)/(1+10^((log IC50−x)*slope)) where x is the logarithm of the inhibitor concentration, y is the response; y starts at bottom and goes to top with a sigmoid shape.

IC50	Structure (SMILES)
30 nM	CC(C)(C)C(=O)N1Cc2c(NC(=O)c3ccc(F)cc3)n[nH]c2C1(C)C [Compound 1, N-[5-(2,2-dimethylpropanoyl)-6,6-dimethyl-1,4,5,6-tetrahydropyrrolo[3,4-c]pyrazol-3-yl]-4-fluorobenzamide]
25 nM	CC(C)(C)C(=O)N1Cc2c(NC(=O)c3ccc(F)cc3)n[nH]c2C12CC2 [Compound 2, N-[5-(2,2-dimethylpropanoyl)-1,4,5,6-tetrahydropyrrolo[3,4-c]pyrazol-6-spirocyclopropan-3-yl]-4-fluorobenzamide]
1700 nM	CC(=O)N1Cc2c(NC(=O)c3cccc(Br)c3)n[nH]c2C1(C)C [Reference Compound, N-[5-acetyl-6,6-dimethyl-4,6-dihydropyrrolo[3,4-c]pyrazol-3-yl]-(3-bromo)benzamide, reference compound]
